Measurements taken from PubChem BioAssay (NCI).
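Grown in 96-well plates, cells were treated for 48 hours with each compound at five concentrations. Insufficient inhibition: endpoint recorded as highest concentration tested. GI50 marks 50% less growth. TGI: concentration producing complete growth inhibition.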

Columns and labels:
Experiment in all cases: inhibition of tumour cell growth, NCI panel, 48 h
[1] = system: OVCAR-3 ovarian
[2] = system: KM12 colon
[3] = system: OVCAR-4 ovarian
[4] = system: T-47D breast
[5] = system: UACC-257 melanoma
[6] = system: SF-268 CNS
[7] = system: LOX IMVI melanoma
[8] = system: NCI/ADR-RES ovarian
[9] = system: U251 CNS
[10] = system: NCI-H226 lung
[11] = system: OVCAR-5 ovarian
[12] = system: A498 renal
[13] = system: HOP-62 NSCLC
[14] = system: ACHN renal
[15] = system: HT29 colon
[16] = system: SR leukemia
[17] = system: NCI-H460 lung
[18] = system: TK-10 renal
[19] = system: COLO 205 colon
[20] = system: HCT-116 colon
[21] = system: HS 578T breast
[22] = system: SF-539 CNS
[23] = system: HL-60(TB) leukemia
[24] = system: 786-0 renal
[25] = system: DU-145 prostate
[26] = system: MCF7 breast
[27] = system: SNB-75 CNS
[28] = system: HCT-15 colon
[29] = system: MALME-3M melanoma
[30] = system: PC-3 prostate
[31] = system: CCRF-CEM leukemia
[32] = system: SK-MEL-5 melanoma
[33] = system: K-562 leukemia
[34] = system: M14 melanoma
[35] = system: SK-MEL-28 melanoma
[36] = system: SF-295 CNS
[37] = system: MDA-MB-231 breast
[38] = system: RXF 393 renal
[39] = system: NCI-H522 lung
[40] = system: A549 NSCLC
[41] = system: SNB-19 CNS
[42] = system: SK-MEL-2 melanoma
[43] = system: UO-31 renal
[44] = system: SW-620 colon
[45] = system: HCC-2998 colon
[46] = system: HOP-92 NSCLC
[47] = system: SK-OV-3 ovarian
[48] = system: SN12C renal
[49] = system: UACC-62 melanoma
[50] = system: CAKI-1 renal
[51] = system: BT-549 breast
[52] = system: MDA-MB-435
[53] = system: MOLT-4 leukemia
[54] = system: RPMI-8226 leukemia
[55] = system: EKVX NSCLC
[56] = system: IGROV1 ovarian
[57] = system: OVCAR-8 ovarian

SMILES: COc1cc(OC)c(S(N)(=O)=O)cc1C(=O)/C=C/c1ccc(C)cc1
- GI50 [1]: 3.05 µM
- TGI [1]: 12.6 µM
- GI50 [2]: 3.13 µM
- TGI [2]: 14.5 µM
- GI50 [3]: 3.66 µM
- TGI [3]: 16.3 µM
- GI50 [4]: 2320 nM
- TGI [4]: 7.55 µM
- GI50 [5]: 3.86 µM
- TGI [5]: 15.9 µM
- GI50 [6]: 3.2 µM
- TGI [6]: 19.8 µM
- GI50 [7]: 543 nM
- TGI [7]: 5.01 µM
- GI50 [8]: 5.25 µM
- TGI [8]: 49.2 µM
- GI50 [9]: 2660 nM
- TGI [9]: 10.1 µM
- GI50 [10]: 4.14 µM
- TGI [10]: 19.3 µM
- GI50 [11]: 2570 nM
- TGI [11]: 7.12 µM
- GI50 [12]: 16.2 µM
- TGI [12]: 30.7 µM
- GI50 [13]: 2900 nM
- TGI [13]: 7.72 µM
- GI50 [14]: 3.86 µM
- TGI [14]: 13.9 µM
- GI50 [15]: 3.5 µM
- TGI [15]: 10.1 µM
- GI50 [16]: 2260 nM
- TGI [16]: 12.9 µM
- GI50 [17]: 2240 nM
- TGI [17]: 5.65 µM
- GI50 [18]: 3.41 µM
- TGI [18]: 12.3 µM
- GI50 [19]: 3.33 µM
- TGI [19]: 9.26 µM
- GI50 [20]: 3.06 µM
- TGI [20]: 12.2 µM
- GI50 [21]: 3.5 µM
- TGI [21]: 35.8 µM
- GI50 [22]: 2170 nM
- TGI [22]: 5.05 µM
- GI50 [23]: 2520 nM
- TGI [23]: 15.8 µM
- GI50 [24]: 3.85 µM
- TGI [24]: 22.3 µM
- GI50 [25]: 4.23 µM
- TGI [25]: 18.9 µM
- GI50 [26]: 2480 nM
- TGI [26]: 12.4 µM
- GI50 [27]: 1840 nM
- TGI [27]: 5.09 µM
- GI50 [28]: 2560 nM
- TGI [28]: 12.9 µM
- GI50 [29]: 8.55 µM
- TGI [29]: 23.6 µM
- GI50 [30]: 3.42 µM
- TGI [30]: 14.4 µM
- GI50 [31]: 3.99 µM
- TGI [31]: > 100 µM
- GI50 [32]: 7.81 µM
- TGI [32]: 21.1 µM
- GI50 [33]: 2430 nM
- TGI [33]: > 100 µM
- GI50 [34]: 3.25 µM
- TGI [34]: 13 µM
- GI50 [35]: 4.09 µM
- TGI [35]: 15.3 µM
- GI50 [36]: 3.89 µM
- TGI [36]: 11.5 µM
- GI50 [37]: 3.41 µM
- TGI [37]: 12.5 µM
- GI50 [38]: 2240 nM
- TGI [38]: 6.06 µM
- GI50 [39]: 2480 nM
- TGI [39]: 8.03 µM
- GI50 [40]: 2750 nM
- TGI [40]: 10.3 µM
- GI50 [41]: 3.65 µM
- TGI [41]: 15.1 µM
- GI50 [42]: 11.5 µM
- TGI [42]: 25.3 µM
- GI50 [43]: 3.46 µM
- TGI [43]: 14.5 µM
- GI50 [44]: 3.43 µM
- TGI [44]: 12.6 µM
- GI50 [45]: 2390 nM
- TGI [45]: 5.47 µM
- GI50 [46]: 2300 nM
- TGI [46]: 7.45 µM
- GI50 [47]: 3.18 µM
- TGI [47]: 9.43 µM
- GI50 [48]: 2950 nM
- TGI [48]: 11.4 µM
- GI50 [49]: 3.63 µM
- TGI [49]: 15.2 µM
- GI50 [50]: 2420 nM
- TGI [50]: 12.4 µM
- GI50 [51]: 2180 nM
- TGI [51]: 6.79 µM
- GI50 [52]: 2270 nM
- TGI [52]: 6.72 µM
- GI50 [53]: 3.07 µM
- TGI [53]: 29.6 µM
- GI50 [54]: 3.2 µM
- TGI [54]: 24.7 µM
- GI50 [55]: 4.33 µM
- TGI [55]: 16.4 µM
- GI50 [56]: 3.56 µM
- TGI [56]: 14.4 µM
- GI50 [57]: 2170 nM
- TGI [57]: 5.19 µM
